# Test results as given in US8299056B2 (Signal Pharmaceuticals, LLC, priority 2008, dated 2012).
# Read-outs that look alike come from different tables or passages of the source.
# Molecular target: T1, Syk (Homo sapiens, UniProt P43405)
# T1 construct: purchased Carna Biosciences
# Assay: Syk HTRF assay
# Assay type: biochemical
# Summary of the method: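 Read-out is the 665 nm/615 nm time-resolved fluorescence ratio after EDTA stop and Eu-anti-phosphotyrosine plus streptavidin-DyLight 647 detection. Reaction ran 1 h at room temperature with start mix of 87.5 μM ATP and 80 nM substrate peptide in pH 7.6 HEPES/MgCl2 buffer.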
# [1] = activity levels A-D, read-out: Activity Level (IC50 in the Syk HTRF assay)
# [2] = read-out: Activity Level (Syk HTRF assay IC50)
# [3] = IC50 activity level, read-out: Activity Level
Compound,IC50 [1] [nM],IC50 [2] [nM],also measured
"CNC(=O)c1ccc(Nc2nc3cccc(N4CC[C@H](O)C4)n3n2)cc1 [Example 249, (S)-4-(5-(3-hydroxypyrrolidin-1-yl)-[1,2,4]triazolo[1,5-a]pyridin-2-ylamino)-N-methylbenzamide]",500 to 1000,,
"Cc1cc(Nc2nc3cccc(N[C@H]4CC[C@@H](O)CC4)n3n2)cc2c1C(C)(C)C(=O)N2 [compound 109, cis-6-(5-(4-hydroxycyclohexylamino)-[1,2,4]triazolo[1,5-a]pyridin-2-ylamino)-3,3,4-trimethylindolin-2-one]",,0.005 to 250,
"CNCc1nc2ccc(-c3cccc4nc(Nc5ccccc5)nn34)cc2o1 [Example 424, 5-(2-((methylamino)methyl)benzo[d]oxazol-6-yl)-N-phenyl-[1,2,4]triazolo[1,5-a]pyridin-2-amine]",,,IC50 [3]: 500 to 1000 nM
"FC(F)(F)c1ccc(Nc2nc3cccc(OC[C@@H]4CCCN4)n3n2)cc1 [Example 303, (S)-5-(pyrrolidin-2-ylmethoxy)-N-(4-(trifluoromethyl)phenyl)-[1,2,4]triazolo[1,5-a]pyridin-2-amine]",1000 to 10000,,
"N#Cc1cccc(-c2cccc3nc(Nc4ccc(C(N)=O)cc4)nn23)c1 [compound 63, 4-(5-(3-cyanophenyl)-[1,2,4]triazolo[1,5-a]pyridin-2-ylamino)benzamide]",,250 to 500,
"CC1(O)CN(c2cccc3nc(Nc4ccc5c(c4)NC(=O)C5(C)C)nn23)C1 [Example 171, 6-(5-(3-hydroxy-3-methylazetidin-1-yl)-[1,2,4]triazolo[1,5-a]pyridin-2-ylamino)-3,3-dimethylindolin-2-one]",,0.005 to 250,
"CC1(C)C(=O)Nc2cc(Nc3nc4cccc(N5CCC(O)CC5)n4n3)ccc21 [compound 114, 6-(5-(4-hydroxypiperidin-1-yl)-[1,2,4]triazolo[1,5-a]pyridin-2-ylamino)-3,3-dimethylindolin-2-one]",,0.005 to 250,
"O=C1CN(Cc2cccc3nc(Nc4cnc5[nH]ccc5c4)nn23)CCN1 [Example 229, 4-((2-(1H-pyrrolo[2,3-b]pyridin-5-ylamino)-[1,2,4]triazolo[1,5-a]pyridin-5-yl)methyl)piperazin-2-one]",0.005 to 250,,
"NC(=O)c1ccc(Nc2nc3cccc(NC4CCC(N)CC4)n3n2)cc1 (stereo in doubt) [Example 492, trans-4-(5-(4-aminocyclohexylamino)-[1,2,4]triazolo[1,5-a]pyridin-2-ylamino)benzamide]",,,IC50 [3]: 0.005 to 250 nM
"OC[C@H]1CCN(c2cccc3nc(Nc4ccc(C(F)(F)F)cc4)nn23)C1 [Example 327, (S)-(1-(2-(4-(trifluoromethyl)phenylamino)-[1,2,4]triazolo[1,5-a]pyridin-5-yl)pyrrolidin-3-yl)methanol]",250 to 500,,
"OC(c1cccc2nc(Nc3ccccc3)nn12)C1CCN(Cc2ccccc2)CC1 (centres unmarked) [Example 491, (1-benzylpiperidin-4-yl)(2-(phenylamino)-[1,2,4]triazolo[1,5-a]pyridin-5-yl)methanol]",,,IC50 [3]: 1000 to 10000 nM
"CN1Cc2cc(Nc3nc4cccc(N[C@H]5CC[C@@H](O)CC5)n4n3)ccc2C1=O [Example 135, cis-5-(5-(4-hydroxycyclohexylamino)-[1,2,4]triazolo[1,5-a]pyridin-2-ylamino)-2-methylisoindolin-1-one]",,0.005 to 250,
"c1ccc(-c2cccc3nc(Nc4ccncc4)nn23)cc1 [compound 58, 5-phenyl-N-(pyridin-4-yl)-[1,2,4]triazolo[1,5-a]pyridin-2-amine]",,500 to 1000,
"c1cc(NC2CCCNC2)n2nc(Nc3ccc(N4CCOCC4)nc3)nc2c1 (stereo in doubt) [Example 411, (S)-N^2-(6-morpholinopyridin-3-yl)-N^5-(piperidin-3-yl)-[1,2,4]triazolo[1,5-a]pyridine-2,5-diamine]",,,IC50 [3]: 0.005 to 250 nM
"CNC(=O)c1ccc(Nc2nc3cccc(CCC4CCNCC4)n3n2)cc1 [Example 254, N-methyl-4-(5-(2-(piperidin-4-yl)ethyl)-[1,2,4]triazolo[1,5-a]pyridin-2-ylamino)benzamide]",500 to 1000,,
"Cc1nnc2cc(Nc3nc4cccc(N[C@H]5CC[C@@H](O)CC5)n4n3)ccn12 [Example 568, cis-4-(2-(3-methyl-[1,2,4]triazolo[4,3-a]pyridin-7-ylamino)-[1,2,4]triazolo[1,5-a]pyridin-5-ylamino)cyclohexanol]",,,IC50 [3]: 0.005 to 250 nM
"c1cc(N[C@H]2CCCNC2)n2nc(Nc3ccc4nn[nH]c4c3)nc2c1 [Example 454, (S)-N^2-(1H-benzo[d][1,2,3]triazol-6-yl)-N^5-(piperidin-3-yl)-[1,2,4]triazolo[1,5-a]pyridine-2,5-diamine]",,,IC50 [3]: 0.005 to 250 nM
"FC(F)(F)c1ccc(Nc2nc3cccc(O[C@H]4CCCNC4)n3n2)cc1 [Example 362, (S)-5-(piperidin-3-yloxy)-N-(4-(trifluoromethyl)phenyl)-[1,2,4]triazolo[1,5-a]pyridin-2-amine]",1000 to 10000,,
"Cc1nnc2cc(Nc3nc4cccc(NC5CCOCC5)n4n3)ccn12 [Example 534, N^2-(3-methyl-[1,2,4]triazolo[4,3-a]pyridin-7-yl)-N^5-(tetrahydro-2H-pyran-4-yl)-[1,2,4]triazolo[1,5-a]pyridine-2,5-diamine]",,,IC50 [3]: 1000 to 10000 nM

Compound,IC50 [1] [nM],IC50 [2] [nM],also measured
"c1ccc(Nc2nc3cccc(Oc4ccccc4)n3n2)cc1 [Example 503, 5-phenoxy-N-phenyl-[1,2,4]triazolo[1,5-a]pyridin-2-amine]",,,IC50 [3]: 1000 to 10000 nM
"O[C@H]1CC[C@H](CNc2cccc3nc(Nc4ccc(C(F)(F)F)cc4)nn23)CC1 [Example 375, trans-4-((2-(4-(trifluoromethyl)phenylamino)-[1,2,4]triazolo[1,5-a]pyridin-5-ylamino)methyl)cyclohexanol]",1000 to 10000,,
"CC1(C)C(=O)Nc2cc(Nc3nc4cccc(N5CC(O)C5)n4n3)ccc21 [Example 170, 6-(5-(3-hydroxyazetidin-1-yl)-[1,2,4]triazolo[1,5-a]pyridin-2-ylamino)-3,3-dimethylindolin-2-one]",,0.005 to 250,
"C[C@]1(O)CC[C@H](Nc2cccc3nc(Nc4ccc(C(F)(F)F)cc4)nn23)CC1 [Example 384, cis-1-methyl-4-(2-(4-(trifluoromethyl)phenylamino)-[1,2,4]triazolo[1,5-a]pyridin-5-ylamino)cyclohexanol]",0.005 to 250,,
"Oc1ccc(Nc2nc3cccc(-c4ccccc4)n3n2)cn1 [compound 70, 5-(5-phenyl-[1,2,4]triazolo[1,5-a]pyridin-2-ylamino)pyridine-2-ol]",,1000 to 10000,
N#Cc1cc(Nc2nc3cccc(-c4ccccc4)n3n2)ccn1 [compound 52],,1000 to 10000,
"OCC1CCN(Cc2cccc3nc(Nc4ccc(C(F)(F)F)cc4)nn23)C1 (stereo in doubt) [Example 323, (R)-(1-((2-(4-(trifluoromethyl)phenylamino)-[1,2,4]triazolo[1,5-a]pyridin-5-yl)methyl)pyrrolidin-3-yl)methanol]",1000 to 10000,,
"Cc1noc2cc(Nc3nc4cccc(CC5CCOCC5)n4n3)ccc12 [Example 537, 3-methyl-N-(5-((tetrahydro-2H-pyran-4-yl)methyl)-[1,2,4]triazolo[1,5-a]pyridin-2-yl)benzo[d]isoxazol-6-amine]",,,IC50 [3]: 500 to 1000 nM
"O=C1NCCc2cc(Nc3nc4cccc(N[C@H]5CC[C@@H](O)CC5)n4n3)ccc21 [Example 203, cis-6-(5-(4-hydroxycyclohexylamino)-[1,2,4]triazolo[1,5-a]pyridin-2-ylamino)-3,4-dihydroisoquinolin-1(2H)-one]",0.005 to 250,,
"Cc1cncc(Nc2nc3cccc(N[C@H]4CC[C@@H](O)CC4)n3n2)c1 [Example 390, cis-4-(2-(5-methylpyridin-3-ylamino)-[1,2,4]triazolo[1,5-a]pyridin-5-ylamino)cyclohexanol]",250 to 500,,
"CNC(=O)c1ccc(Nc2nc3cccc(-c4cccc(O)c4)n3n2)c(OC)c1 [compound 15, 4-(5-(3-hydroxyphenyl)-[1,2,4]triazolo[1,5-a]pyridin-2-ylamino)-3-methoxy-N-methylbenzamide]",,500 to 1000,
"CC1(C)C(=O)Nc2cc(Nc3nc4cccc(CN5CCNC(=O)C5)n4n3)ccc21 [Example 172, 3,3-dimethyl-6-(5-((3-oxopiperazin-1-yl)methyl)-[1,2,4]triazolo[1,5-a]pyridin-2-ylamino)indolin-2-one]",,0.005 to 250,
"CNC(=O)c1ccc(Nc2nc3cccc(OC4CCC(N)CC4)n3n2)cc1 (stereo in doubt) [Example 291, trans-4-(5-(4-aminocyclohexyloxy)-[1,2,4]triazolo[1,5-a]pyridin-2-ylamino)-N-methylbenzamide]",250 to 500,,
"CC1(C)C(=O)Nc2cc(Nc3nc4cccc(Cc5cc[nH]c(=O)c5)n4n3)ccc21 [Example 156, 3,3-dimethyl-6-(5-((2-oxo-1,2-dihydropyridin-4-yl)methyl)-[1,2,4]triazolo[1,5-a]pyridin-2-ylamino)indolin-2-one]",,0.005 to 250,
"OC(Cc1cccc2nc(Nc3ccc(F)cc3)nn12)c1ccccc1 (centres unmarked) [Example 431, 2-(2-(4-fluorophenylamino)-[1,2,4]triazolo[1,5-a]pyridin-5-yl)-1-phenylethanol]",,,IC50 [3]: 250 to 500 nM
"Cc1nc2cc(Nc3nc4cccc(-c5ccccc5)n4n3)ccc2[nH]1 [compound 46, N-(2-methyl-1H-benzo[d]imidazol-5-yl)-5-phenyl-[1,2,4]triazolo[1,5-a]pyridin-2-amine]",,0.005 to 250,
"Cc1n[nH]c2cc(Nc3nc4cccc(NC[C@H]5CC[C@H](O)C5)n4n3)ccc12 [Example 181, (1S,3S)-3-((2-(3-methyl-1H-indazol-6-ylamino)-[1,2,4]triazolo[1,5-a]pyridin-5-ylamino)methyl)cyclopentanol]",,0.005 to 250,
Cn1nc(NC2CCOCC2)c2ccc(Nc3nc4cccc(CC5CCOCC5)n4n3)cc21 [Example 99],,1000 to 10000,
"FC(F)(F)c1ccc(Nc2nc3cccc(N[C@@H]4CCCNC4)n3n2)cc1 [Example 468, (R)-N^5-(piperidin-3-yl)-N^2-(4-(trifluoromethyl)phenyl)-[1,2,4]triazolo[1,5-a]pyridin-2,5-diamine]",,,IC50 [3]: 500 to 1000 nM
